Source: article PMC9217576, “Urease and α-Chymotrypsin Inhibitory Activities and Molecular Docking Studies of Alkaloids Isolated from Medicinal Plant Isatis minima Bunge” (Evidence-based Complementary and Alternative Medicine : eCAM, 2022)
Where two headings read alike, the source gives them in different places.

Tests used:
Format in all cases: biochemical
[1] = target: α-chymotrypsin (Bos taurus, UniProt P00766); assay: In vitro chymotrypsin inhibition assay; details: for IC50: SEM of five determinations, Tris-HCl pH 7.6, 25°C
[2] = target: Bacillus pasteurii urease (Sporosarcina pasteurii, UniProt P41020); assay: In vitro urease inhibition assay (indophenol method); details: for IC50: SEM of five determinations, pH 6.8, 30°C
Sequence of Bacillus pasteurii urease (P41022 whole entry): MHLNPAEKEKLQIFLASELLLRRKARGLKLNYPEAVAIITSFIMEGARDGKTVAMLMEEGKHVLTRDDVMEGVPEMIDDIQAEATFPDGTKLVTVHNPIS
Sequence of Bacillus pasteurii urease (P41020 whole entry): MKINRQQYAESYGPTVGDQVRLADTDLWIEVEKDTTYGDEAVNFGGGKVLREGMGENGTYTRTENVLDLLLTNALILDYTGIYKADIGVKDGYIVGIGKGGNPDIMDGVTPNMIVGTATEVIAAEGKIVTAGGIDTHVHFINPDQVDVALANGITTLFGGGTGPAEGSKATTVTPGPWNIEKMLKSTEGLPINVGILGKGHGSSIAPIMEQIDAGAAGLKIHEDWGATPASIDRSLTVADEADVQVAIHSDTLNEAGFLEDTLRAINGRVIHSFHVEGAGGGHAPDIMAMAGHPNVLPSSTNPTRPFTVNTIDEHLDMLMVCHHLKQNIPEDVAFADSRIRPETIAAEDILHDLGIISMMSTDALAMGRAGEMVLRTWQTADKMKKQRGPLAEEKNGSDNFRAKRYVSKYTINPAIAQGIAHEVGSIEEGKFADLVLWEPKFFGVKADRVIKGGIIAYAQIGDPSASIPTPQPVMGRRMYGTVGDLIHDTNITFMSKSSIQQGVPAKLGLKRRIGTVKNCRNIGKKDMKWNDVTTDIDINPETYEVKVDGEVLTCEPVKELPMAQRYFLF
Sequence of Bacillus pasteurii urease (P41021 whole entry, further chain): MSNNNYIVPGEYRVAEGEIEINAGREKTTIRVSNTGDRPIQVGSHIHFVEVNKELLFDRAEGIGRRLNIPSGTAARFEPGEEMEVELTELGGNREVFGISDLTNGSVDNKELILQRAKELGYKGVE

[3] = target: Jack bean urease (Canavalia ensiformis, UniProt P07374); assay: biochemical; details: for IC50: SEM of five determinations, pH 6.8, 30°C
Sequence of Jack bean urease (P07374 whole entry, looked up): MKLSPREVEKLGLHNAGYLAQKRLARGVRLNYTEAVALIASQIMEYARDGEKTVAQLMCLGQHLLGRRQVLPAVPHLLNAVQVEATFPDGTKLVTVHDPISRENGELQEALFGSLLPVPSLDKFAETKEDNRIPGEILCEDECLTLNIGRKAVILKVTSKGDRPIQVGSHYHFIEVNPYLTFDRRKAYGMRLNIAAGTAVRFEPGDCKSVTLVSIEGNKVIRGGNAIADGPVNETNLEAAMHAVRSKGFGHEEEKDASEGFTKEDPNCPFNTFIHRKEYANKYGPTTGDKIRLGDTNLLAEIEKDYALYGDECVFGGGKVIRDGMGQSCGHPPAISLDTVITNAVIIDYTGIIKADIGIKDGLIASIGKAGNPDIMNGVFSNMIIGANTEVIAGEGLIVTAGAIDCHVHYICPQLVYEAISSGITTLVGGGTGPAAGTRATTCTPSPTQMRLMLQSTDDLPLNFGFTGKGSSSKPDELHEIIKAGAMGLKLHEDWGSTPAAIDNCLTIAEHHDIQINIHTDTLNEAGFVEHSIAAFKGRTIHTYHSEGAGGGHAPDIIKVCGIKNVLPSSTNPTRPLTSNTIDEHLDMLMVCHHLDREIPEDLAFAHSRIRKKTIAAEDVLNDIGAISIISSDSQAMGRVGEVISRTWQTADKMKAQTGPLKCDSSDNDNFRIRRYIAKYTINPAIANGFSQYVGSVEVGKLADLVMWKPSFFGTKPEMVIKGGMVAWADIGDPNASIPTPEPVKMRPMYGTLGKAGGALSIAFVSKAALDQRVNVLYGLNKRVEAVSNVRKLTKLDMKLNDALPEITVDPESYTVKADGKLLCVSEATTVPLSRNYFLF

[4] = read-out: Urease IC50 ± SEM (Bacillus pasteurii urease)
[5] = Urease IC50 ± SEM (Jack bean urease)
[6] = Urease IC50 ± SEM (Bacillus pasteurii urease)

`O=C1C(c2[nH]c3ccccc3c2C2=c3ccccc3=N/C2=C2\Nc3ccccc3C2=O)=Nc2ccccc21` [Bisindigotin] was tested, and the “inhibitory potential against α-chymotrypsin (in words)” value [1] was “moderate inhibitory potential”, the IC50 [1] was 34.01 ± 0.07 µM and the “inhibitory activity against Bacillus pasteurii urease (in words)” value [2] was “significant inhibitory activity”. The IC50 [2, 4] was 42.04 ± 0.07 µM, the “inhibitory activity against Jack bean urease (in words)” value [3] was “significant inhibitory activity” and the IC50 [3, 5] was 58.15 ± 0.02 µM.

In the case of `O=C1/C(=c2\c3ccccc3n3c(=O)c4ccccc4nc23)Nc2ccccc21` [Candidine], the “inhibitory potential against α-chymotrypsin (in words)” value [1] is reported as “moderate inhibitory potential”, the IC50 [1] is reported as 44.07 ± 0.04 µM and the “inhibitory activity against Bacillus pasteurii urease (in words)” value [2] is reported as “significant inhibitory activity”. It also gave an IC50 [2, 6] of 46.12 ± 0.05 µM.

With `COc1cc(C2c3c(c4ccccc4[nH]c3=O)C(=O)N3CCCC23)cc(OC)c1O` (stereo not shown) [Isaindigotidione] the IC50 [1] was 16.09 ± 0.07 µM, the IC50 [2, 4] was 20.04 ± 0.09 µM and the IC50 [3, 5] was 29.03 ± 0.04 µM.

With `COc1cc(/C=C2\CCn3c2nc2ccccc2c3=O)cc(OC)c1O` [Isaindigotone] the IC50 [1] was 22.01 ± 0.06 µM, the IC50 [2, 4] was 26.13 ± 0.08 µM and the IC50 [2, 6] was 29.03 ± 0.04 µM. The IC50 [3, 5] was 34.03 ± 0.07 µM.

`NC(N)=S` [Thiourea, reference compound] gave an IC50 [2, 4] of 14.03 ± 0.08 µM and an IC50 ([3]; read-out: Urease IC50 ± SEM (Jack bean urease)) of 18.04 ± 0.01 µM.
